# According to PubChem BioAssay (NCI):
#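 Assay format: 96-well plates, 48-hour exposure. GI50: concentration for 50% inhibition of growth. TGI marks complete inhibition of growth.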
# Assays:
# Experiment in all cases: inhibition of tumour cell growth, NCI panel, 48 h
# CAKI-1 renal = system: CAKI-1 renal
# NCI-H460 lung = system: NCI-H460 lung
# HOP-92 NSCLC = system: HOP-92 NSCLC
# UACC-62 melanoma = system: UACC-62 melanoma
# UO-31 renal = system: UO-31 renal
# KM12 colon = system: KM12 colon
# OVCAR-4 ovarian = system: OVCAR-4 ovarian
# HOP-62 NSCLC = system: HOP-62 NSCLC
# SW-620 colon = system: SW-620 colon
SMILES,GI50 (CAKI-1 renal) [µM],TGI (CAKI-1 renal) [µM],GI50 (NCI-H460 lung) [µM],TGI (NCI-H460 lung) [µM],GI50 (HOP-92 NSCLC) [µM],TGI (HOP-92 NSCLC) [µM],GI50 (UACC-62 melanoma) [µM],TGI (UACC-62 melanoma) [µM],GI50 (UO-31 renal) [µM],TGI (UO-31 renal) [µM],GI50 (KM12 colon) [µM],TGI (KM12 colon) [µM],GI50 (OVCAR-4 ovarian) [µM],TGI (OVCAR-4 ovarian) [µM],GI50 (HOP-62 NSCLC) [µM],TGI (HOP-62 NSCLC) [µM],GI50 (SW-620 colon) [µM],TGI (SW-620 colon) [µM]
CC/C(=N\Nc1nc2ccccc2n1C)c1ccccn1,0.113,1.98,0.114,1.82,0.184,4.82,0.142,0.839,0.0761,1.16,0.19,11.3,< 0.0185,4.68,0.175,3.34,0.0393,15
Clc1ccc(-c2nc3c(-c4ccc(Cl)cc4)nc(-c4ccccc4)cn3c2-c2ccc(Cl)cc2)cc1,27.8,> 50,> 50,> 50,14.9,37.1,26,> 50,> 50,> 50,> 50,> 50,> 50,> 50,16,> 50,> 50,> 50
COc1cc(CNC(=O)/C=C/C=C/c2ccc3c(c2)OCO3)ccc1OCc1cn(-c2ccc(Cl)c(Cl)c2)nn1,1.62,3.57,0.445,1.83,1.48,3.39,1.26,2.65,3.15,13.7,2.41,7.25,1.09,2.72,1.79,3.86,0.362,1.55
Nc1ccc2c(c1)C(=O)c1ccc(F)cc1-2,–,> 100,–,> 100,–,> 100,–,> 100,–,> 100,–,> 100,–,> 100,–,> 100,–,> 100
O=C1Cc2cc(CCn3ccnc3)c(Cl)cc2N1,6.32,> 100,16.1,> 100,3.54,91.5,7.68,> 100,58,> 100,3.58,98.4,45,> 100,33.2,> 100,5.02,> 100
CC(=O)Nc1ccc2nncnc2c1,–,> 100,–,> 100,–,–,–,> 100,–,> 100,–,> 100,–,> 100,–,> 100,–,> 100
CCN1CCN(CCOc2ccc(CNc3ccc4nc(CCC5CCCCC5)[nH]c4c3)cc2)CC1,2.01,4.11,2.47,7.27,0.925,3.09,1.93,3.52,1.42,2.79,2.96,9.82,2.61,11.1,1.99,4.63,1.91,4.14
